# Measurements reported in PubChem BioAssay AID1919015 (Molecular Pharmacology Branch, DTP, NCI, 2023).
# Where “and” joins values, the source holds several entries; their conditions need not be identical. Equal values may be shown once.
# System: OVCAR-5 complex spheroids with HUVEC/MSC, viability, % test/control
# Test: Anticancer human tumor OVCAR-5 cell line growth inhibition [AhR];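 also: spheroids exposed to compounds for 7 days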;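 as to viability, T/C: 100% = DMSO vehicle control wells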
# Details: for viability, T/C: stronger effect = lower value
# Method in brief: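 Spheroids combined tumor cells with HUVEC endothelial cells and human MSCs as stroma. AhR antagonists were paired with standard or investigational drugs, each dosed in half-log steps down from near clinical Cmax, or from 10 microM where Cmax was unknown.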
# [1] = curve of first compound, second compound 0.1 µM
# [2] = curve of first compound, second compound 0.316 µM
# [3] = curve of first compound, second compound 1 µM
# [4] = curve of first compound, second compound 3.16 µM
# [5] = curve of first compound, second compound 10 µM
# [6] = second compound 0.1 µM, first compound 0.0316 µM
# [7] = second compound 0.1 µM, first compound 0.1 µM
# [8] = second compound 0.316 µM, first compound 0.0316 µM
# [9] = second compound 0.316 µM, first compound 0.1 µM
# [10] = second compound 1 µM, first compound 0.0316 µM
# [11] = second compound 1 µM, first compound 0.1 µM
# [12] = second compound 3.16 µM, first compound 0.0316 µM
# [13] = second compound 3.16 µM, first compound 0.1 µM
# [14] = second compound 10 µM, first compound 0.0316 µM
# [15] = second compound 10 µM, first compound 0.1 µM
compound,measurement,setting,value
CC[C@@]1(O)C(=O)OCc2c1cc1n(c2=O)Cc2cc3c(CN(C)C)c(O)ccc3nc2-1 + Cc1ccccc1N=Nc1ccc(NC(=O)c2ccnn2C)c(C)c1,IC50,[1],22.9 nM
same,IC50,[2],24.3 nM
same,IC50,[3],25.3 nM
same,IC50,[4],27.5 nM
same,IC50,[5],28.2 nM
same,"viability, T/C","second compound 0.1 µM, first compound 0.000316 µM",103%
same,"viability, T/C","second compound 0.1 µM, first compound 0.001 µM",102%
same,"viability, T/C","second compound 0.1 µM, first compound 0.00316 µM",94%
same,"viability, T/C","second compound 0.1 µM, first compound 0.01 µM",79.2%
same,"viability, T/C",[6],34.7%
same,"viability, T/C",[7],42.4%
same,"viability, T/C","second compound 0.316 µM, first compound 0.000316 µM",105%
same,"viability, T/C","second compound 0.316 µM, first compound 0.001 µM",103%
same,"viability, T/C","second compound 0.316 µM, first compound 0.00316 µM",96%
same,"viability, T/C","second compound 0.316 µM, first compound 0.01 µM",84.6%
same,"viability, T/C",[8],36.5%
same,"viability, T/C",[9],42.7%
same,"viability, T/C","second compound 1 µM, first compound 0.000316 µM",112%
same,"viability, T/C","second compound 1 µM, first compound 0.001 µM",108%
same,"viability, T/C","second compound 1 µM, first compound 0.00316 µM",104%
same,"viability, T/C","second compound 1 µM, first compound 0.01 µM",89.3%
same,"viability, T/C",[10],38.7%
same,"viability, T/C",[11],42.4%
same,"viability, T/C","second compound 3.16 µM, first compound 0.000316 µM",113%
same,"viability, T/C","second compound 3.16 µM, first compound 0.001 µM",110%
same,"viability, T/C","second compound 3.16 µM, first compound 0.00316 µM",108%
same,"viability, T/C","second compound 3.16 µM, first compound 0.01 µM",92%
same,"viability, T/C",[12],41%
same,"viability, T/C",[13],47.4%
same,"viability, T/C","second compound 10 µM, first compound 0.000316 µM",100%
same,"viability, T/C","second compound 10 µM, first compound 0.001 µM",104%
same,"viability, T/C","second compound 10 µM, first compound 0.00316 µM",101%
same,"viability, T/C","second compound 10 µM, first compound 0.01 µM",89%
same,"viability, T/C",[14],40.9%
same,"viability, T/C",[15],50.4%
Cn1ncnc1C1c2n[nH]c(=O)c3cc(F)cc(c23)NC1c1ccc(F)cc1 (configuration not stated),"viability, T/C",compound 0.000316 µM,104% and 100% and 102%
same,"viability, T/C",compound 0.001 µM,101% and 99% and 103%
same,"viability, T/C",compound 0.00316 µM,105% and 94.4% and 102%
same,"viability, T/C",compound 0.01 µM,98.9% and 92.5% and 97.6%
same,"viability, T/C",compound 0.0316 µM,101% and 92.3% and 97.3%
same,"viability, T/C",compound 0.1 µM,95.8% and 88% and 91.3%
same,IC50,curve of compound,> 100 nM
CCN(c1cc(-c2ccc(CN3CCOCC3)cc2)cc(C(=O)NCc2c(C)cc(C)[nH]c2=O)c1C)C1CCOCC1 + Cc1cncc(-c2nc(NCCc3c[nH]c4ccccc34)c3ncn(C(C)C)c3n2)c1,IC50,[1],> 3000 nM
same,IC50,[2],> 3000 nM
same,IC50,[3],> 3000 nM
same,IC50,[4],> 3000 nM
same,IC50,[5],< 9.49 nM
same,"viability, T/C","second compound 0.1 µM, first compound 0.00949 µM",101%
same,"viability, T/C","second compound 0.1 µM, first compound 0.03 µM",101%
same,"viability, T/C","second compound 0.1 µM, first compound 0.0949 µM",98.9%
same,"viability, T/C","second compound 0.1 µM, first compound 0.3 µM",97.3%
same,"viability, T/C","second compound 0.1 µM, first compound 0.949 µM",97.1%
same,"viability, T/C","second compound 0.1 µM, first compound 3 µM",96.7%
same,"viability, T/C","second compound 0.316 µM, first compound 0.00949 µM",102%
same,"viability, T/C","second compound 0.316 µM, first compound 0.03 µM",100%
same,"viability, T/C","second compound 0.316 µM, first compound 0.0949 µM",96.5%
same,"viability, T/C","second compound 0.316 µM, first compound 0.3 µM",97.8%
same,"viability, T/C","second compound 0.316 µM, first compound 0.949 µM",94.7%
same,"viability, T/C","second compound 0.316 µM, first compound 3 µM",98.2%
same,"viability, T/C","second compound 1 µM, first compound 0.00949 µM",93.4%
same,"viability, T/C","second compound 1 µM, first compound 0.03 µM",93.4%
same,"viability, T/C","second compound 1 µM, first compound 0.0949 µM",97%
same,"viability, T/C","second compound 1 µM, first compound 0.3 µM",90.6%
same,"viability, T/C","second compound 1 µM, first compound 0.949 µM",89.7%
same,"viability, T/C","second compound 1 µM, first compound 3 µM",89.6%
same,"viability, T/C","second compound 3.16 µM, first compound 0.00949 µM",78.5%
same,"viability, T/C","second compound 3.16 µM, first compound 0.03 µM",79%
same,"viability, T/C","second compound 3.16 µM, first compound 0.0949 µM",80.2%
same,"viability, T/C","second compound 3.16 µM, first compound 0.3 µM",75.3%
same,"viability, T/C","second compound 3.16 µM, first compound 0.949 µM",72.7%
same,"viability, T/C","second compound 3.16 µM, first compound 3 µM",70.4%
same,"viability, T/C","second compound 10 µM, first compound 0.00949 µM",14.8%
same,"viability, T/C","second compound 10 µM, first compound 0.03 µM",16%
same,"viability, T/C","second compound 10 µM, first compound 0.0949 µM",15.4%
same,"viability, T/C","second compound 10 µM, first compound 0.3 µM",6.52%
same,"viability, T/C","second compound 10 µM, first compound 0.949 µM",2.63%
same,"viability, T/C","second compound 10 µM, first compound 3 µM",1.33%
NS(=O)(=O)OCC1CC(n2ccc3c(NC4CCc5ccccc54)ncnc32)CC1O (configuration not stated) + Cc1cncc(-c2nc(NCCc3c[nH]c4ccccc34)c3ncn(C(C)C)c3n2)c1,IC50,[1],152 nM
same,IC50,[2],114 nM
same,IC50,[3],91.8 nM
same,IC50,[4],98 nM
same,IC50,[5],< 31.6 nM
same,"viability, T/C",[6],86.4%
same,"viability, T/C",[7],57.5%
same,"viability, T/C","second compound 0.1 µM, first compound 0.316 µM",37.2%
same,"viability, T/C","second compound 0.1 µM, first compound 1 µM",17.6%
same,"viability, T/C","second compound 0.1 µM, first compound 3.16 µM",13.1%
same,"viability, T/C","second compound 0.1 µM, first compound 10 µM",12.2%
same,"viability, T/C",[8],78%
same,"viability, T/C",[9],51.5%
same,"viability, T/C","second compound 0.316 µM, first compound 0.316 µM",33%
same,"viability, T/C","second compound 0.316 µM, first compound 1 µM",16.5%
same,"viability, T/C","second compound 0.316 µM, first compound 3.16 µM",13.6%
same,"viability, T/C","second compound 0.316 µM, first compound 10 µM",12.3%
same,"viability, T/C",[10],69.7%
same,"viability, T/C",[11],47.4%
same,"viability, T/C","second compound 1 µM, first compound 0.316 µM",31.6%
same,"viability, T/C","second compound 1 µM, first compound 1 µM",16.6%
same,"viability, T/C","second compound 1 µM, first compound 3.16 µM",11.3%
same,"viability, T/C","second compound 1 µM, first compound 10 µM",10.7%
same,"viability, T/C",[12],64%
same,"viability, T/C",[13],50.2%
same,"viability, T/C","second compound 3.16 µM, first compound 0.316 µM",22.7%
same,"viability, T/C","second compound 3.16 µM, first compound 1 µM",10.7%
same,"viability, T/C","second compound 3.16 µM, first compound 3.16 µM",6.17%
same,"viability, T/C","second compound 3.16 µM, first compound 10 µM",4.99%
same,"viability, T/C",[14],3.84%
same,"viability, T/C",[15],3.41%
same,"viability, T/C","second compound 10 µM, first compound 0.316 µM",2.74%
same,"viability, T/C","second compound 10 µM, first compound 1 µM",2.03%
same,"viability, T/C","second compound 10 µM, first compound 3.16 µM",0.83%
same,"viability, T/C","second compound 10 µM, first compound 10 µM",0.48%
